Data as given in article PMC3017052, “A Novel Peptide Derived from Human Apolipoprotein E Is an Inhibitor of Tumor Growth and Ocular Angiogenesis” (PLoS ONE, 2011).

Assays:
HUVEC [1] = assay type: cell-based, human; details: 48 h
Description: To confirm that apoEdp affects cell survival, cell viability was determined using the cell titer 96®AQuous One solution cell proliferation kit. ApoEdp treatment of HUVECs induced a dose-dependent inhibition of cell viability (Fig. 1A). […] To determine whether apoEdp suppresses tumor growth by directly affecting tumor cells, we performed a cell viability assay using human breast cancer MDA-MB-231 cell line in vitro and cell titer 96®AQuous One solution cell proliferation kit.
Figure 1 ApoEdp affects HUVEC survival but not MDA-MB-231. A. HUVEC: ApoEdp has a significant effect on VEGF-induced HUVEC viability. Cells were treated with apoEdp at the indicated concentrations and incubated with constant 50 ng/mL VEGF for 48 hr. All values were normalized to cell control of no VEGF and no apoEdp. Cell viability values (mean ± SEM) are expressed as % of the value of the VEGF control. B. MDA-MB-231: ApoEdp has no effect on MDA-MB-231viability. ApoEdp has no significant effect on MDA-MB-231 survival. Cells were treated with apoEdp at the indicated concentrations and incubated at 37°C for 2 days. Cell viability values (mean ± SEM) are expressed as % of the value of the control (untreated cells). […]
The effect of apoEdp on ED survival was evaluated. […] Two days later, cell numbers were determined using the CellTiter96 AQueous One solution cell proliferation kit (Promega, Madison, WI).

HUVEC [2] = experiment: Boyden chamber migration/invasion assay; assay type: cell-based, human; details: Boyden chamber transwell, 50 ng/mL VEGF, 16 hr at 37°C, apoEdp 6–100 µM; read-out: IC50, inhibition of VEGF-induced HUVEC migration and invasion
Excerpt: The complex process of new blood vessel formation involves migration and invasion of ECs. The inhibition of EC motility through migration and invasion could thus be expected to affect the angiogenic process. To evaluate the ability of apoEdp in blocking VEGF-induced HUVEC migration and invasion, we used a Boyden chamber transwell assay (Materials and Methods). We quantified the invasion of HUVECs across the transwell. Cells which invaded across the membrane were stained with hematoxylin and eosin stain and counted (Fig. 4A–B). […] All values were normalized to cell numbers of transwells exposed to EBM containing 1% FBS without apoEdp and VEGF.
Figure 4 ApoEdp inhibits endothelial cell invasion. About 4×10^4 HUVECs were placed into each insert of Boyden chamber ([…]) (BD Biosciences) of 24-well transwell plate. The bottom chambers were filled with 600 µL medium supplemented with 50 ng/mL VEGF. The top chamber was seeded with approximately 4×10^4 HUVEC cells/well in 100 µL containing different concentrations of apoEdp and incubated at 37°C for 16 hs. HUVEC cells were then fixed and stained with H&E and counted under the microscope. […]
Boyden chamber migration/invasion assays were performed. […] Transwell invaded cells were counted using an inverted microscope. Three independent areas per filter were counted, and the mean ± SEM number of migrated cells was calculated.

Ac-LRKLRKRLLLRKLRKRLL-NH2 [apoEdp] was tested, and the “50% cytotoxicity (CC50), HUVEC viability” value (HUVEC [1]) was “about 103 µM” and the IC50 (HUVEC [2]) was ~31.5 µM.
